According to US20130224110A1, “USE OF ADENOSINE RECEPTOR SIGNALING TO MODULATE PERMEABILITY OF BLOOD-BRAIN BARRIER” (CORNELL UNIVERSITY, priority 2010, published 2013):

Legend:
Bend.3 cells = assay: Transendothelial cell electrical resistance (TEER) assay; assay type: cell-based; settings: mouse BEC monolayers, 1 μM, vs vehicle or media alone
Experimental: Bend.3 cells were grown in ATCC-formulated DMEM supplemented with 10% FBS on 24-well transwell inserts, 8 μm pore size (BD Falcon, Bedford, Mass.) until a monolayer was established. TEER was assessed using a Voltohmeter (EVOMX, World Precision Instruments, Sarasota, Fla.). Background resistance from un-seeded transwells was subtracted from recorded values to determine absolute TEER values. Change in absolute TEER from T0 for each individual transwell was expressed as percentage change and then averaged for each treatment group.

Z310 cells = assay: Jurkat cell migration across Z310 choroid plexus cell transwell; assay type: cell-based, murine; settings: 24 hours, n=1
Experimental: To test the hypothesis, Transwell membranes were seeded with Z310 cells and allowed to grow to confluencey. 2×10^6 Jurkat cells were added to the upper chamber with or with out NECA (n=1, general AR agonist), CCPA (n=1, A1 AR agonist), CGS 21860 (n=1, A2A AR agonist), or DMSO vehicle(n=1). After 24 hours, migrated cells in the lower chamber were counted. Values are relative to the number of cells that migrate through non-Z310 seeded transwells and the results are shown in FIG. 12.

EAE = EAE induction and scoring (MOG35-55/CFA/PTX); assay type: in vivo, mice; settings: wild type mice, 2 mg/kg (1 mg/kg i.p. and 1 mg/kg s.c.) 1 day prior to EAE induction and daily for 30 days, vs DMSO alone
Description: Cd73^−/− mice have been previously described (Thompson et al., “Crucial Role for Ecto-5′-Nucleotidase (CD73) in Vascular Leakage During Hypoxia,” J. Exp. Med. 200:1395-1405 (2004), which is hereby incorporated by reference in its entirety) and have been backcrossed to C57BL/6 for 14 generations. Cd73^−/− mice have no overt susceptibility to infection and appear normal based on the size and cellular composition of their lymphoid organs and their T and B cell responses in in vivo and in vitro assays (Thompson et al., “Crucial Role for Ecto-5′-Nucleotidase (CD73) in Vascular Leakage During Hypoxia,” J. Exp. Med. 200:1395-1405 (2004), which is hereby incorporated by reference in its entirety). C57BL/6 and tcrα^−/− mice on the C57BL/6 background were purchased from The Jackson Laboratories. Mice were bred and housed under specific pathogen-free conditions at Cornell University or the University of Turku. For adenosine receptor blockade experiments, mice were given drinking water supplemented with 0.6 g/L of caffeine (Sigma) or 2 mg/kg SCH58261 (1 mg/kg s.c. and 1 mg/kg i.p.) in DMSO (45% vol. in PBS) or 45% DMSO alone starting 1 day before EAE induction and continuing throughout the experiment. All procedures performed on mice were approved by the relevant animal review committee.
EAE was induced by subjecting mice to the myelin oligodendrocyte glycoprotein (“MOG”) EAE-inducing regimen as described in Swanborg, “Experimental Autoimmune Encephalomyelitis in Rodents as a Model for Human Demyelinating Disease,” Clin. Immunol. Immunopathol. 77:4-13 (1995) and Bynoe et al., “Epicutaneous Immunization with Autoantigenic Peptides Induces T Suppressor Cells that Prevent Experimental Allergic Encephalomyelitis,” Immunity 19:317-328 (2003), which are hereby incorporated by reference in their entirety. […] Mice were scored daily for EAE based on disease symptom severity; 0=no disease, 0.5-1=weak/limp tail, 2=limp tail and partial hind limb paralysis, 3=total hind limb paralysis, 4=both hind limb and fore limb paralysis, 5=death. […]
As CD73 catalyzes the breakdown of AMP to adenosine and ARs are expressed in the CNS (Tsutsui et al., “A1 Adenosine Receptor Upregulation and Activation Attenuates Neuroinflammation and Demyelination in a Model of Multiple Sclerosis,” J. Neurosci. 24:1521-1529 (2004)); Rosi et al., The Influence of Brain Inflammation Upon Neuronal Adenosine A2B Receptors,” J. Neurochem. 86:220-227 (2003), which are hereby incorporated by reference in their entirety), it was next determined if AR signaling is important during EAE progression. […] Since CD73 is highly expressed on the choroid plexus (FIG. 6C), it was next determined if ARs are also expressed on the choroid plexus. […]

`CCNC(=O)[C@H]1O[C@@H](n2cnc3c(N)ncnc32)[C@H](O)[C@@H]1O` [NECA, 5′-N-ethylcarboxamido adenosine] was tested, and the TEER (Bend.3 cells) was “decreases in TEER” and the “lymphocyte (Jurkat) migration across the CP” value (Z310 cells) was “induced migration”.

In the case of `Nc1nc2c(cnn2CCc2ccccc2)c2nc(-c3ccco3)nn12` [SCH58261, 2-(2-Furanyl)-7-(2-phenylethyl)-7H-pyrazolo[4,3-e][1,2,4]triazolo[1,5-c]pyrimidin-5-amine], the EAE development (EAE) is reported as “dramatically protected against EAE development”.
